From patent US12612380B2, “Non-lysosomal glucosylceramidase inhibitors and uses thereof” (ALECTOS THERAPEUTICS INC., priority 2019, dated 2026)

Target: T1, GBA2 (Homo sapiens, UniProt Q9HCG7)
T1 sequence (Q9HCG7 1-927): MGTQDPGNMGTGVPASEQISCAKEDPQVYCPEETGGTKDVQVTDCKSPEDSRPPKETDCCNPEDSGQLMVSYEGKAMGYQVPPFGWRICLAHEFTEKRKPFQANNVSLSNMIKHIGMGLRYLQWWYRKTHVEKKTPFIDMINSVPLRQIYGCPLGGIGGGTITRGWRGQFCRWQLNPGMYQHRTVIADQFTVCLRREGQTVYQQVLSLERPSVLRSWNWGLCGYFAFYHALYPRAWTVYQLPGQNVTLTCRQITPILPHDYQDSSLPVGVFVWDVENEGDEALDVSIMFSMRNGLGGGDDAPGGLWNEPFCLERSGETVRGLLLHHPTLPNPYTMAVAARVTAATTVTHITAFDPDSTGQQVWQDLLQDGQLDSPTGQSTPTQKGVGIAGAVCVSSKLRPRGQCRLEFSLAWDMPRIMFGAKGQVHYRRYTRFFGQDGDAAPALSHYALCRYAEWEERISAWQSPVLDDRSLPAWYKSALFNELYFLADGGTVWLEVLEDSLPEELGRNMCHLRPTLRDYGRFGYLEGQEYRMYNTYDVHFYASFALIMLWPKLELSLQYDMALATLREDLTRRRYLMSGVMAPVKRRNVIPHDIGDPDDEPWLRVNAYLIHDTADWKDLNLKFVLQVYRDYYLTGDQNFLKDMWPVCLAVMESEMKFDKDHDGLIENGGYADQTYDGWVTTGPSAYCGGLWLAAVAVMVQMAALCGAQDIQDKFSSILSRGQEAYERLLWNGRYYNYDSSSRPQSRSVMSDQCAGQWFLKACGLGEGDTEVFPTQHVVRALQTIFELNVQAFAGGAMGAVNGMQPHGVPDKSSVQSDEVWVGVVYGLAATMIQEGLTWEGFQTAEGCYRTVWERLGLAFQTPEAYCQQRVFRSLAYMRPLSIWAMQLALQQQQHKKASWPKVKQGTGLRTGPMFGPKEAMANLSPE
Assay: Determination of IC50 values for inhibition of GBA2 in cell lysate
Assay type: biochemical
Design: host or cells: HEK293T (lentiviral transduction, puromycin selection); used as cellular homogenate
Details: cellular homogenate of HEK293T cells overexpressing human GBA2, 250 μM 4-methylumbelliferone-β-D glucopyranoside, pH 5.5, 37° C., GCase inhibitor present; read-out: GBA2 IC50
Procedure, shortened: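 Fluorogenic 4-MU-β-glucoside (250 μM) turnover over 20 min at 37 °C, pH 5.5, measured after NaOH/glycine stop (ex 365, em 450 nm). Enzyme source: lysate (0.083 mg/mL) of lentivirally transduced GBA2-HEK293T, GCase blocked by 20 μM azaspiro-octanediol; compound preincubated 5 min; IC50 = 50% inhibition concentration.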

`C[C@@H]1[C@@H](O)[C@H](O)[C@@H](O)CN1CC1CCN(C(=O)C(C)(C)C)CC1` [Example 93, 2,2-dimethyl-1-(4-(((2R,3R,4R,5S)-3,4,5-trihydroxy-2-methylpiperidin-1-yl)methyl)piperidin-1-yl)propan-1-one] and `C[C@@H]1[C@@H](O)[C@H](O)[C@@H](O)CN1CC1CCN(C(=O)CC(C)(C)C)CC1` [Example 96, 3,3-dimethyl-1-(4-(((2R,3R,4R,5S)-3,4,5-trihydroxy-2-methylpiperidin-1-yl)methyl)piperidin-1-yl)butan-1-one] fall in the same range of IC50: 0.1 to 1 µM for the first, 0.1 to 1 µM for the second.

First: CCCC(=O)N1CCC(CN2C[C@H](O)[C@@H](O)[C@H](O)[C@H]2C)CC1 [Example 94, 1-(4-(((2R,3R,4R,5S)-3,4,5-trihydroxy-2-methylpiperidin-1-yl)methyl)piperidin-1-yl)butan-1-one]
Second: CC(C)CC(=O)N1CCC(CN2C[C@H](O)[C@@H](O)[C@H](O)[C@H]2C)CC1 [Example 95, 3-methyl-1-(4-(((2R,3R,4R,5S)-3,4,5-trihydroxy-2-methylpiperidin-1-yl)methyl)piperidin-1-yl)butan-1-one]
The IC50 of the first is higher: 1 to 25 µM for the first, 0.1 to 1 µM for the second. The second is the more potent here.

`C[C@@H]1[C@@H](O)[C@H](O)[C@@H](O)CN1CC1CCN(C(=O)CC2CCCC2)CC1` [Example 97, 2-cyclopentyl-1-(4-(((2R,3R,4R,5S)-3,4,5-trihydroxy-2-methylpiperidin-1-yl)methyl)piperidin-1-yl)ethanone] and `C[C@@H]1[C@@H](O)[C@H](O)[C@@H](O)CN1CC1CCN(C(=O)C2CCCC2)CC1` [Example 100, cyclopentyl(4-(((2R,3R,4R,5S)-3,4,5-trihydroxy-2-methylpiperidin-1-yl)methyl)piperidin-1-yl)methanone] fall in the same range of IC50: 0.1 to 1 µM for the first, 0.1 to 1 µM for the second.

Compared with `C[C@@H]1[C@@H](O)[C@H](O)[C@@H](O)CN1CC1CCN(C(=O)C2CC2)CC1` [Example 98, cyclopropyl(4-(((2R,3R,4R,5S)-3,4,5-trihydroxy-2-methylpiperidin-1-yl)methyl)piperidin-1-yl)methanone], `C[C@@H]1[C@@H](O)[C@H](O)[C@@H](O)CN1CC1CCN(C(=O)C2CCC2)CC1` [Example 99, cyclobutyl(4-(((2R,3R,4R,5S)-3,4,5-trihydroxy-2-methylpiperidin-1-yl)methyl)piperidin-1-yl)methanone] is lower in IC50: 1 to 25 µM for the first, 0.1 to 1 µM for the second.

`C[C@@H]1[C@@H](O)[C@H](O)[C@@H](O)CN1CC1CCN(C(=O)C2CCCCC2)CC1` [Example 101, cyclohexyl(4-(((2R,3R,4R,5S)-3,4,5-trihydroxy-2-methylpiperidin-1-yl)methyl)piperidin-1-yl)methanone] and `C[C@@H]1[C@@H](O)[C@H](O)[C@@H](O)CN1CC1CCN(C(=O)NC2CCCCC2)CC1` [Example 110, N-cyclohexyl-4-(((2R,3R,4R,5S)-3,4,5-trihydroxy-2-methylpiperidin-1-yl)methyl)piperidine-1-carboxamide] fall in the same range of IC50: 0.1 to 1 µM for the first, 0.1 to 1 µM for the second.

`C[C@@H]1[C@@H](O)[C@H](O)[C@@H](O)CN1CC1CCN(C(=O)[C@H]2CC[C@@H](C(C)(C)C)CC2)CC1` [Example 102, ((1s,4S)-4-(tert-butyl)cyclohexyl)(4-(((2R,3R,4R,5S)-3,4,5-trihydroxy-2-methylpiperidin-1-yl)methyl)piperidin-1-yl)methanone] and `C[C@@H]1[C@@H](O)[C@H](O)[C@@H](O)CN1CC1CCN(C(=O)[C@H]2CC[C@H](C(C)(C)C)CC2)CC1` [Example 103, ((1r,4R)-4-(tert-butyl)cyclohexyl)(4-(((2R,3R,4R,5S)-3,4,5-trihydroxy-2-methylpiperidin-1-yl)methyl)piperidin-1-yl)methanone] cannot be ordered by IC50: less than 0.1 µM for the first, less than 0.1 µM for the second.

Compared with `COC1CCC(C(=O)N2CCC(CN3C[C@H](O)[C@@H](O)[C@H](O)[C@H]3C)CC2)CC1` (stereo partly drawn) [Example 104, (4-methoxycyclohexyl)(4-(((2R,3R,4R,5S)-3,4,5-trihydroxy-2-methylpiperidin-1-yl)methyl)piperidin-1-yl)methanone], `C[C@@H]1[C@@H](O)[C@H](O)[C@@H](O)CN1CC1CCN(C(=O)C2CCC(C(F)(F)F)CC2)CC1` (stereo partly drawn) [Example 105, (4-(trifluoromethyl)cyclohexyl)(4-(((2R,3R,4R,5S)-3,4,5-trihydroxy-2-methylpiperidin-1-yl)methyl)piperidin-1-yl)methanone] is lower in IC50: 1 to 25 µM for the first, less than 0.1 µM for the second. The second is the more potent here.

`C[C@@H]1[C@@H](O)[C@H](O)[C@@H](O)CN1CC1CCN(C(=O)c2ccccc2)CC1` [Example 106, phenyl(4-(((2R,3R,4R,5S)-3,4,5-trihydroxy-2-methylpiperidin-1-yl)methyl)piperidin-1-yl)methanone] and `C[C@@H]1[C@@H](O)[C@H](O)[C@@H](O)CN1CC1CCN(C(=O)Cc2ccccc2)CC1` [Example 108, 2-phenyl-1-(4-(((2R,3R,4R,5S)-3,4,5-trihydroxy-2-methylpiperidin-1-yl)methyl)piperidin-1-yl)ethanone] fall in the same range of IC50: 0.1 to 1 µM for the first, 0.1 to 1 µM for the second.

First: C[C@@H]1[C@@H](O)[C@H](O)[C@@H](O)CN1CC1CCN(C(=O)c2cccc(C(F)(F)F)c2)CC1 [Example 107, (3-(trifluoromethyl)phenyl)(4-(((2R,3R,4R,5S)-3,4,5-trihydroxy-2-methylpiperidin-1-yl)methyl)piperidin-1-yl)methanone]
Second: C[C@@H]1[C@@H](O)[C@H](O)[C@@H](O)CN1CC1CCN(C(=O)c2ccsc2)CC1 [Example 109, thiophen-3-yl(4-(((2R,3R,4R,5S)-3,4,5-trihydroxy-2-methylpiperidin-1-yl)methyl)piperidin-1-yl)methanone]
The IC50 of the first is lower: less than 0.1 µM for the first, 0.1 to 1 µM for the second.

First: C[C@@H]1[C@@H](O)[C@H](O)[C@@H](O)CN1CC1CCN(C(=S)NC2CCCCC2)CC1 [Example 111, N-cyclohexyl-4-(((2R,3R,4R,5S)-3,4,5-trihydroxy-2-methylpiperidin-1-yl)methyl)piperidine-1-carbothioamide]
Second: C[C@@H]1[C@@H](O)[C@H](O)[C@@H](O)CN1CC1CN([C@H]2CCCC[C@H]2C(F)(F)F)C1 [Example 112, (2R,3R,4R,5S)-2-methyl-1-((1-((1S,2R)-2-(trifluoromethyl)cyclohexyl)azetidin-3-yl)methyl)piperidine-3,4,5-triol]
The IC50 of the first is lower: 0.1 to 1 µM for the first, 1 to 25 µM for the second.

Compared with `C[C@@H]1[C@@H](O)[C@H](O)[C@@H](O)CN1C[C@H]1CCN(c2ccccc2)C1` [Example 113, (2R,3R,4R,5S)-2-methyl-1-(((R)-1-phenylpyrrolidin-3-yl)methyl)piperidine-3,4,5-triol], `C[C@@H]1[C@@H](O)[C@H](O)[C@@H](O)CN1C[C@H]1CCN(c2cccnc2)C1` [Example 122, (2R,3R,4R,5S)-2-methyl-1-(((R)-1-(pyridin-3-yl)pyrrolidin-3-yl)methyl)piperidine-3,4,5-triol] is higher in IC50: less than 0.1 µM for the first, 1 to 25 µM for the second. The first is the more potent here.

`C[C@@H]1[C@@H](O)[C@H](O)[C@@H](O)CN1C[C@H]1CCN(c2cc(C(F)(F)F)ccn2)C1` [Example 121, (2R,3R,4R,5S)-2-methyl-1-(((R)-1-(4-(trifluoromethyl)pyridin-2-yl)pyrrolidin-3-yl)methyl)piperidine-3,4,5-triol] and `C[C@@H]1[C@@H](O)[C@H](O)[C@@H](O)CN1C[C@H]1CCN(c2cncc(C(F)(F)F)c2)C1` [Example 125, (2R,3R,4R,5S)-2-methyl-1-(((R)-1-(5-(trifluoromethyl)pyridin-3-yl)pyrrolidin-3-yl)methyl)piperidine-3,4,5-triol] cannot be ordered by IC50: less than 0.1 µM for the first, less than 0.1 µM for the second.

First: Cc1ccncc1N1CC[C@H](CN2C[C@H](O)[C@@H](O)[C@H](O)[C@H]2C)C1 [Example 123, (2R,3R,4R,5S)-2-methyl-1-(((R)-1-(4-methylpyridin-3-yl)pyrrolidin-3-yl)methyl)piperidine-3,4,5-triol]
Second: C[C@@H]1[C@@H](O)[C@H](O)[C@@H](O)CN1C[C@H]1CCN(c2cnccc2C(F)(F)F)C1 [Example 124, (2R,3R,4R,5S)-2-methyl-1-(((R)-1-(4-(trifluoromethyl)pyridin-3-yl)pyrrolidin-3-yl)methyl)piperidine-3,4,5-triol]
The IC50 of the first is higher: 0.1 to 1 µM for the first, less than 0.1 µM for the second. The second is the more potent here.

Compound `C[C@@H]1[C@@H](O)[C@H](O)[C@@H](O)CN1C[C@H]1CCN(c2cccnc2C(F)(F)F)C1` [Example 126, (2R,3R,4R,5S)-2-methyl-1-(((R)-1-(2-(trifluoromethyl)pyridin-3-yl)pyrrolidin-3-yl)methyl)piperidine-3,4,5-triol] has an IC50 of less than 0.1 µM.
